The data set can be described thus: Evaluation of moisture-heat resistance: turbidity (crystal precipitation) in the transparent resin film. In kind it is physicochemical. The note with it: amount of 3.5 parts by mass or more. How it is done:
(Evaluation of Moisture-Heat Resistance)
The transparent resin films A-1 to A-14 and B-1 to B-3 were aged for 20 days under moisture heat conditions of a temperature of 85° C. and a humidity of 85%, and the presence or absence of turbidity (crystal precipitation) in the transparent resin film was evaluated according to the following standards.
(Evaluation Standards for Turbidity)
A: Almost no change in appearance such as turbidity due to crystal precipitation is observed.

In the case of `CCCCCCCCCOC(=O)/C(C#N)=C/C=C/N(CC)CC` [UV-4], the crystal precipitation result is given as “caused crystal precipitation”.
As for `CCCCC(CC)COC(=O)/C(C#N)=C\C=C1/CCCN1C` (centres unmarked) [UV-5], the crystal precipitation entry is “caused crystal precipitation”.

The values above are taken from patent US20220119688A1, “LAMINATE, LIQUID CRYSTAL DISPLAY DEVICE, AND ORGANIC ELECTROLUMINESCENT DISPLAY DEVICE” (FUJIFILM Corporation, priority 2019, published 2022).
